Legend:
Assay type in all cases: cell-based
[1] = target: T1, CFTR G551D mutant (Homo sapiens, UniProt P13569, G551D); assay: YFP-halide influx assay for the CFTR-G551D mutation; settings: HEK293 cells, forskolin 10.67 μM
T1 construct: expressed in transfected cells; host or cells: HEK293 (reverse transfection with plasmid)
Summary of the method: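 HEK293 cells reverse-transfected with CFTR G551D and YFP H148Q/I152L/F47L halide sensor, expressed 24 h at 37 °C. Iodide-induced fluorescence quench recorded 7 s after I− injection; response = 1−F/F0, with EC50 from plot against compound concentration.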

[2] = target: T2, CFTR ΔF508 mutant (Homo sapiens, UniProt P13569, DEL508-508); assay: YFP-halide influx assay for the CFTR-ΔF508 mutation, PBS buffer (96 well); settings: CFBE41o- cells, forskolin 10.67 μM
T2 construct: expressed in transfected cells; host or cells: CFBE41o- (adenoviral transduction)
T2 sequence (P13569 with tags, fused parts or gaps DEL508-508): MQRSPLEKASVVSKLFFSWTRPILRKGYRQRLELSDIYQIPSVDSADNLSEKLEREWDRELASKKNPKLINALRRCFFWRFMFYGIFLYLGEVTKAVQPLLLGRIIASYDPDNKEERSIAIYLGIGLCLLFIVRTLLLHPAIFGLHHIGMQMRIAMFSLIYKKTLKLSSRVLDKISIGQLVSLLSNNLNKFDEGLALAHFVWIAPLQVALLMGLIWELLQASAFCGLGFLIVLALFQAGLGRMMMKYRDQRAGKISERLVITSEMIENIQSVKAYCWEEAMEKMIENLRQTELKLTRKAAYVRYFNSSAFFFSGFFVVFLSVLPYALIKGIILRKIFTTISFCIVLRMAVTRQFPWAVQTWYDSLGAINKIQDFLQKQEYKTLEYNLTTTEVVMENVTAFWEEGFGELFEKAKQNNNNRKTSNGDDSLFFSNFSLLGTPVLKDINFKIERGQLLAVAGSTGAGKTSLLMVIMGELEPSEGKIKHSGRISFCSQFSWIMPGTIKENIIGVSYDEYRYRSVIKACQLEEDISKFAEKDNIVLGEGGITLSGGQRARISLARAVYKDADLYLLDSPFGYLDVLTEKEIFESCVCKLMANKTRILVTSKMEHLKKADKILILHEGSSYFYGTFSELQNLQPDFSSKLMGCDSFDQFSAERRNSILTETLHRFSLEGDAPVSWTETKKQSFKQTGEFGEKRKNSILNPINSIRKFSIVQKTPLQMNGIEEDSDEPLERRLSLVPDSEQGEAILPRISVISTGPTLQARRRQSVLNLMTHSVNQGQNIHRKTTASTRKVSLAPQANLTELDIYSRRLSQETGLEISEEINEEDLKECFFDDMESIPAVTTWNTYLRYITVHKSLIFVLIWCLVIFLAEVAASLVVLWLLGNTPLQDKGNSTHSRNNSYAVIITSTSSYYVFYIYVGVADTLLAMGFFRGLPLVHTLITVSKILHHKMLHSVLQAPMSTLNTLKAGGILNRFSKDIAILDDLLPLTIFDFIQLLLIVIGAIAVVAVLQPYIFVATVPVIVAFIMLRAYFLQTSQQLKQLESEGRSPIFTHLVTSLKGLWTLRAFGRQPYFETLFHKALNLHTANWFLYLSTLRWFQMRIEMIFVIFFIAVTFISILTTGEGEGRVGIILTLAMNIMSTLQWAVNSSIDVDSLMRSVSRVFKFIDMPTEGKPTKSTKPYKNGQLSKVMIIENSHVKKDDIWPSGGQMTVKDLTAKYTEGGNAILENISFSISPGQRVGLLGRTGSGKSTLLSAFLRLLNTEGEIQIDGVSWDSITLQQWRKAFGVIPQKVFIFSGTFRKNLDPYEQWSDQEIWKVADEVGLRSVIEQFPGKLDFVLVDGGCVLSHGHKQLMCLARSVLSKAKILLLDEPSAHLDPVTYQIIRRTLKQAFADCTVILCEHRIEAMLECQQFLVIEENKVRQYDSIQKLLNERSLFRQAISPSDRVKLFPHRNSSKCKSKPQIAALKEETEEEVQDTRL
Summary of the method: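 CFBE41o- cells were adenovirally transduced with CFTR ΔF508 and YFP H148Q/I152L, then incubated 24 h at 27 °C or with a CFTR modulator at 37 °C. I⁻-induced fluorescence quenching was recorded over 7 s after injection; response expressed as 1−F/F0, with EC50 from concentration plots.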

[3] = target: T2, CFTR ΔF508 mutant; assay: YFP-halide influx assay for the CFTR-ΔF508 mutation (384 well, FDSS/μCell); settings: CFBE41o- cells, CFTR-ΔF508, 1×D-PBS, fluorescence after 36 seconds
Summary of the method: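 Potentiator read-out as 1−F/F0, F taken 36 s after iodide addition, EC50 fitted against compound concentration. Cells: CFBE41o- expressing ΔF508 CFTR plus halide-sensitive YFP via adenovirus, rescued by 27 °C for 24 h or 24 h modulator at 37 °C.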

[4] = target: T2, CFTR ΔF508 mutant; assay: YFP-halide influx assay for the CFTR-ΔF508 mutation, gluconate buffer; settings: CFBE41o- cells, forskolin 10.67 μM
Summary of the method: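 CFBE41o- cells adenovirally transduced with CFTR ΔF508 and YFP H148Q/I152L, then held 24 h at 27 °C or treated with CFTR modulator 24 h at 37 °C. I− quenching recorded for 7 s after injection; activity as 1-F/F0, EC50 from concentration plot.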

T1 sequence (P13569 whole entry G551D): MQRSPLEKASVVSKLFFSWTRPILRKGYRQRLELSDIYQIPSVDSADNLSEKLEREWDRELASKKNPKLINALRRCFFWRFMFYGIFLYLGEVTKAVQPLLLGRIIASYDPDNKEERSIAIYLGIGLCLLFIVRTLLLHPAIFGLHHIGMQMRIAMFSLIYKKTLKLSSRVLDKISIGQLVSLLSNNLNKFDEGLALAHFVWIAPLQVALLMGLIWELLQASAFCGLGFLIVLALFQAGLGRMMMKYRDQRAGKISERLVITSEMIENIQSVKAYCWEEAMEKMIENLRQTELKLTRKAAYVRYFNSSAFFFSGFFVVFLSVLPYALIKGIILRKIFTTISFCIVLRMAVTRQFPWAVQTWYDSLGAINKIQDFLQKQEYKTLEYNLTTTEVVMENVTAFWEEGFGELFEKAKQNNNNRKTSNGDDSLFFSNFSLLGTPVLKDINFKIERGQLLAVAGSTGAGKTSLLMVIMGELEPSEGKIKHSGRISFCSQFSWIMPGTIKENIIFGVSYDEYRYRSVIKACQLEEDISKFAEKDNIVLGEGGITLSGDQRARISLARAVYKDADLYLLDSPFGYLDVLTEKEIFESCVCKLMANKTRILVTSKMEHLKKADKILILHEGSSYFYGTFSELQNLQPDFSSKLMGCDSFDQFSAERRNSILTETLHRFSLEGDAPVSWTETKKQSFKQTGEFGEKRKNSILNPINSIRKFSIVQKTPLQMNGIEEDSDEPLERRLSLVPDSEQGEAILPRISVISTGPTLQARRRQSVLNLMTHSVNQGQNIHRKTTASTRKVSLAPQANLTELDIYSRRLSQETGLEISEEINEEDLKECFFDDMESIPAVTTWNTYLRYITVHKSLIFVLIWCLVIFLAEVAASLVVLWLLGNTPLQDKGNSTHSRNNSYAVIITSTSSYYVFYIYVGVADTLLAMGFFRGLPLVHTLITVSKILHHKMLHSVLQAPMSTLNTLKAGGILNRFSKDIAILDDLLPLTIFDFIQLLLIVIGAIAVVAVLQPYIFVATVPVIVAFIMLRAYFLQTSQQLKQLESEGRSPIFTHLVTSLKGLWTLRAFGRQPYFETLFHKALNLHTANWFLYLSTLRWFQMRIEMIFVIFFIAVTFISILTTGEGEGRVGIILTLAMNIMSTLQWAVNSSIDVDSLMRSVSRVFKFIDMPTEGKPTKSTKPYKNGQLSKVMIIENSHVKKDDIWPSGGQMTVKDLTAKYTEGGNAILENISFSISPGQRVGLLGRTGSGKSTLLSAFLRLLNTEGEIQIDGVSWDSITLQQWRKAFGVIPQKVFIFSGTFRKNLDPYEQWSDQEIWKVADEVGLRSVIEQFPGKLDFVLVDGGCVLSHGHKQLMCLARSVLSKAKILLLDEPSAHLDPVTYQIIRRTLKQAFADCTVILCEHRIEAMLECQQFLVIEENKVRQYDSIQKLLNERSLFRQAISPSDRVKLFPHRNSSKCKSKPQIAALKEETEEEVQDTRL

Row | Compound | EC50 [1] [nM] | EC50 [2] [nM] | EC50 [3] [nM] | EC50 [4] [nM]
1 | NC(=O)c1cc(S(=O)(=O)N2CCOCC2)sc1NC(=O)c1ccccc1C(F)(F)F [Compound 78, 5-(morpholinosulfonyl)-2-(2-(trifluoromethyl)benzamido)thiophene-3-carboxamide] | 3070 | 220 | 146 | 401
2 | CC(C)(C)C(=O)Nc1sc(S(=O)(=O)c2cccc(F)c2)cc1C(N)=O [Compound 122, 5-(3-fluorophenylsulfonyl)-2-pivalamidothiophene-3-carboxamide] | 5680 | 114 | 68.4 | 293
3 | CN(Cc1ccc(C(F)(F)F)cc1)S(=O)(=O)c1cc(C(N)=O)c(NC(=O)c2cc[nH]n2)s1 [Compound 175, N-(3-carbamoyl-5-(N-methyl-N-(4-(trifluoromethyl)benzyl)sulfamoyl)thiophen-2-yl)-1H-pyrazole-3-carboxamide] | 527 | 61.7 | 96.8 | 106
4 | CN(Cc1ccncc1)S(=O)(=O)c1cc(C(N)=O)c(NC(=O)c2cc[nH]n2)s1 [Compound 207, N-(3-carbamoyl-5-(N-methyl-N-(pyridin-4-ylmethyl)sulfamoyl)thiophen-2-yl)-1H-pyrazole-3-carboxamide] | 442 | 125 | 48.1 | 317
5 | NC(=O)c1cc(S(=O)(=O)N2CCC(F)(F)CC2)sc1NC(=O)C1(O)CCC1 [Compound 213, 5-(4,4-difluoropiperidin-1-ylsulfonyl)-2-(1-hydroxycyclobutanecarboxamido) thiophene-3-carboxamide] | 541 | 118 | 52.8 | 87.3
6 | Cc1cccc(C(=O)Nc2sc(S(=O)(=O)N3CCOCC3)cc2C(N)=O)c1O [Compound 216, 2-(2-hydroxy-3-methylbenzamido)-5-(morpholinosulfonyl) thiophene-3-carboxamide] | – | 216 | – | 709
7 | CC(C)(CO)C(=O)Nc1sc(S(=O)(=O)N2CCC(F)(F)CC2)cc1C(N)=O [Compound 217, 5-(4,4-difluoropiperidin-1-ylsulfonyl)-2-(3-hydroxy-2,2-dimethylpropanamido) thiophene-3-carboxamide] | – | 164 | – | 195
8 | CN(CC1CC1)S(=O)(=O)c1cc(C(N)=O)c(NC(=O)c2ccccc2F)s1 [Compound 218, 5-(N-(cyclopropylmethyl)-N-methylsulfamoyl)-2-(2-fluorobenzamido) thiophene-3-carboxamide] | 410 | 72.7 | – | 196
9 | CC(C)(O)C(=O)Nc1sc(S(C)(=O)=O)cc1C(N)=O [Compound 219, 2-(2-hydroxy-2-methylpropanamido)-5-(methylsulfonyl) thiophene-3-carboxamide] | – | > 1000 | – | > 1000
10 | CC(C)S(=O)(=O)c1cc(C(N)=O)c(NC(=O)C(C)(C)O)s1 [Compound 220, 2-(2-hydroxy-2-methylpropanamido)-5-(isopropylsulfonyl) thiophene-3-carboxamide] | – | 2310 | – | > 1000
11 | NC(=O)c1cc(S(=O)(=O)c2ccc(F)cc2)sc1NC(=O)C1(O)CC1 [Compound 224, 5-(4-fluorophenylsulfonyl)-2-(1-hydroxycyclopropanecarboxamido) thiophene-3-carboxamide] | 511 | 54.1 | 35 | 103

Now those with a lower EC50 [2], led by results:

Row | EC50 [1] [nM] | EC50 [2] [nM] | EC50 [3] [nM] | EC50 [4] [nM] | Compound
12 | 1870 | 35.5 | 79.5 | 50.5 | NC(=O)c1cc(S(=O)(=O)N2CC=C(C(F)(F)F)CC2)sc1NC(=O)c1ccccc1F [Compound 158, 2-(2-fluorobenzamido)-5-(4-(trifluoromethyl)-5,6-dihydropyridin-1(2H)-ylsulfonyl)thiophene-3-carboxamide]
13 | 272 | 38.7 | 210 | 48.4 | COc1ccc(CN(C)S(=O)(=O)c2cc(C(N)=O)c(NC(=O)c3cc[nH]n3)s2)cc1F [Compound 160, N-(3-carbamoyl-5-(N-(3-fluoro-4-methoxybenzyl)-N-methylsulfamoyl)thiophen-2-yl)-1H-pyrazole-3-carboxamide]
14 | 756 | 37.5 | 81.4 | 104 | COc1ccc(CN(C)S(=O)(=O)c2cc(C(N)=O)c(NC(=O)c3cc[nH]n3)s2)cc1 [Compound 171, N-(3-carbamoyl-5-(N-(4-methoxybenzyl)-N-methylsulfamoyl)thiophen-2-yl)-1H-pyrazole-3-carboxamide]
15 | 332 | 31.2 | 84.9 | 22.2 | CC(C)c1ccccc1S(=O)(=O)c1cc(C(N)=O)c(NC(=O)c2ccccc2F)s1 [Compound 179, 2-(2-fluorobenzamido)-5-(2-isopropylphenylsulfonyl) thiophene-3-carboxamide]
16 | 526 | 25.7 | 12.7 | 153 | CC1(C)CN(S(=O)(=O)c2cc(C(N)=O)c(NC(=O)c3ccccc3F)s2)C1 [Compound 183, 5-(3,3-dimethylazetidin-1-ylsulfonyl)-2-(2-fluorobenzamido)thiophene-3-carboxamide]
17 | 298 | 33.4 | 20.7 | 60.6 | CN(CC(C)(C)C)S(=O)(=O)c1cc(C(N)=O)c(NC(=O)c2cc[nH]n2)s1 [Compound 192, N-(3-carbamoyl-5-(N-methyl-N-neopentylsulfamoyl)thiophen-2-yl)-1H-pyrazole-3-carboxamide]
18 | 185 | 38.3 | 20.7 | 154 | CN(CCC(F)(F)F)S(=O)(=O)c1cc(C(N)=O)c(NC(=O)c2cc[nH]n2)s1 [Compound 194, N-(3-carbamoyl-5-(N-methyl-N-(3,3,3-trifluoropropyl)sulfamoyl)thiophen-2-yl)-1H-pyrazole-3-carboxamide]
19 | 134 | 31.4 | 6.9 | 72.6 | CC1(C)CN(S(=O)(=O)c2cc(C(N)=O)c(NC(=O)c3cc[nH]n3)s2)C1 [Compound 206, N-(3-carbamoyl-5-(3,3-dimethylazetidin-1-ylsulfonyl)thiophen-2-yl)-1H-pyrazole-3-carboxamide]
20 | 314 | 34.5 | 6 | 73.9 | CN(C1CC1)S(=O)(=O)c1cc(C(N)=O)c(NC(=O)c2cc[nH]n2)s1 [Compound 209, N-(3-carbamoyl-5-(N-cyclopropyl-N-methylsulfamoyl)thiophen-2-yl)-1H-pyrazole-3-carboxamide]
21 | – | 37.2 | 25.8 | 117 | NC(=O)c1cc(S(=O)(=O)N2CCC(F)(F)CC2)sc1NC(=O)c1c(O)cc(F)cc1F [Compound 214, 2-(2,4-difluoro-6-hydroxybenzamido)-5-(4,4-difluoropiperidin-1-ylsulfonyl) thiophene-3-carboxamide]
22 | 1160 | 49.4 | 26.1 | 110 | CC(C)(O)C(=O)Nc1sc(S(=O)(=O)c2ccc(F)cc2)cc1C(N)=O [Compound 221, 5-(4-fluorophenylsulfonyl)-2-(2-hydroxy-2-methylpropanamido) thiophene-3-carboxamide]
23 | 583 | 26.1 | 33.2 | 22.9 | Cc1cc(F)ccc1S(=O)(=O)c1cc(C(N)=O)c(NC(=O)C2(O)CC2)s1 [Compound 222, 5-(4-fluoro-2-methylphenylsulfonyl)-2-(1-hydroxycyclopropanecarboxamido) thiophene-3-carboxamide]
24 | 327 | 31.8 | 62.1 | 37.9 | NC(=O)c1cc(S(=O)(=O)c2ccc(F)cc2)sc1NC(=O)c1ccccc1O [Compound 223, 5-(4-fluorophenylsulfonyl)-2-(2-hydroxybenzamido) thiophene-3-carboxamide]
25 | 540 | 36.9 | 33.8 | 42.2 | NC(=O)c1cc(S(=O)(=O)c2ccc(F)cc2)sc1NC(=O)C1(O)CCC1 [Compound 226, 5-(4-fluorophenylsulfonyl)-2-(1-hydroxycyclobutanecarboxamido) thiophene-3-carboxamide]
